# Laboratory results: the supplement of paper PMC10307832
# Legend:
# Test in all cases: relative viability (nuclei count vs DMSO), 5 days (fraction); higher = more cells survive
# [1] = compound: CCc1c2c(nc3ccc(OC(=O)N4CCC(N5CCCCC5)CC4)cc13)-c1cc3c(c(=O)n1C2)COC(=O)[C@]3(O)CC [Irinotecan] + N=C(N)NC(=N)NCCc1ccccc1 [Phenformin] (partner 250 µM)
# Procedure, shortened: (§1)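 The day after seeding in 1536-well plates, lung cancer cell lines were treated by pin tool with a single drug, or with a fixed anchor-drug dose together with five library-drug doses (not always all listed) in √10 steps. After 5 days, a combined fix-and-stain solution (final 0.05% Triton X-100, 1% formaldehyde, 1 ug/ml Hoechst) was added. Nuclei counted on 4× images gave relative viability as treated counts over vehicle counts, reported as the median of duplicate plates.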
# [2] = compound: CCc1c2c(nc3ccc(OC(=O)N4CCC(N5CCCCC5)CC4)cc13)-c1cc3c(c(=O)n1C2)COC(=O)[C@]3(O)CC [Irinotecan] + CC(=O)Nc1cccc(-n2c(=O)n(C3CC3)c(=O)c3c(Nc4ccc(I)cc4F)n(C)c(=O)c(C)c32)c1 [Trametinib] (partner 0.02 µM)
# Procedure, shortened: as §1
# [3] = compound: CC[C@@H](C)CNCC(=O)N1CCC2=C([C@@H]1COC3=CC=CC(=C3)C)C=CS2 [RU-SKI 43] + COc1cccc2cc(-c3nc([C@H]4CC[C@H](C(=O)O)CC4)n4ncnc(N)c34)[nH]c12 [OSI-027] (partner 0.5 µM)
# Procedure, shortened: as §1
# [4] = compound: CC[C@@H](C)CNCC(=O)N1CCC2=C([C@@H]1COC3=CC=CC(=C3)C)C=CS2 [RU-SKI 43] + Cc1nc(Nc2ncc(C(=O)Nc3c(C)cccc3Cl)s2)cc(N2CCN(CCO)CC2)n1 [Dasatinib] (partner 0.075 µM)
# Procedure, shortened: as §1
Cell Line,relative viability ([1]; first compound 0.6325 µM),relative viability ([1]; first compound 2 µM),relative viability ([1]; first compound 6.325 µM),relative viability ([1]; first compound 20 µM),relative viability ([2]; first compound 0.6325 µM),relative viability ([2]; first compound 2 µM),relative viability ([2]; first compound 6.325 µM),relative viability ([2]; first compound 20 µM),relative viability ([3]; first compound 0.1 µM),relative viability ([3]; first compound 0.3162 µM),relative viability ([3]; first compound 1 µM),relative viability ([3]; first compound 3.162 µM),relative viability ([3]; first compound 10 µM),relative viability ([4]; first compound 0.1 µM),relative viability ([4]; first compound 0.3162 µM),relative viability ([4]; first compound 1 µM),relative viability ([4]; first compound 3.162 µM),relative viability ([4]; first compound 10 µM)
NCI-H460,0.21,0.272,0.0796,0.0368,0.086,0.159,0.089,0.0313,0.643,1.24,1.14,0.913,0.521,0.505,0.592,0.652,0.573,0.51
COR-L 105,0.505,0.682,0.41,0.182,0.432,0.425,0.474,0.401,0.672,0.817,0.708,0.677,0.665,0.323,0.259,0.304,0.36,0.335
BEN,0.242,0.247,0.24,0.272,1.2,0.769,0.503,0.556,0.31,0.292,0.306,0.302,0.33,0.333,0.253,0.474,0.272,0.316
NCI-H1993,0.536,0.503,0.531,0.551,,0.5,0.527,0.517,0.53,0.527,0.596,0.59,0.575,0.608,0.516,0.653,0.778,0.533
NCI-H838,0.661,0.587,0.312,0.202,0.672,0.647,0.319,0.171,0.431,0.264,0.355,0.417,0.38,0.296,0.213,0.303,0.247,0.327
NCI-H1755,0.498,0.603,0.296,0.307,0.733,0.456,0.405,0.469,0.757,0.825,0.781,0.841,0.699,0.417,0.474,0.469,0.521,0.379
NCI-H1666,0.511,0.529,0.425,0.424,0.769,0.569,0.638,0.432,0.897,0.87,0.85,0.858,0.752,0.772,0.922,0.799,0.763,0.699
NCI-H2085,0.662,0.702,0.559,0.478,0.521,0.397,0.32,0.252,0.705,0.678,0.696,0.834,0.552,0.24,0.247,0.275,0.234,0.262
COR-L23,0.31,0.394,0.188,0.108,0.307,0.41,0.23,0.0821,0.718,0.99,0.865,0.881,0.614,0.461,0.491,0.55,0.445,0.443
NCI-H647,0.463,0.644,0.161,0.104,0.447,0.414,0.151,0.0916,0.647,0.864,0.755,0.918,0.707,0.155,0.226,0.223,0.192,0.135
NCI-H1793,,0.347,0.263,0.185,,0.515,0.351,0.262,0.257,0.21,0.348,0.28,0.257,0.388,0.381,0.357,0.385,0.316
LCLC-97TM1,0.322,0.205,0.127,0.115,0.131,0.14,0.128,0.154,0.486,0.551,0.627,0.496,0.485,0.961,0.919,0.974,0.811,0.796
HOP-62,0.443,0.532,0.267,0.204,0.311,0.23,0.23,0.228,0.912,1.02,1.1,0.915,0.928,0.741,0.709,0.875,0.641,0.603
NCI-H520,0.542,0.649,0.317,0.258,0.52,0.397,0.264,0.172,0.301,0.303,0.287,0.251,0.349,0.188,0.233,0.297,0.272,0.191
NCI-H1734,,0.357,0.244,0.17,,0.261,0.188,0.188,0.498,0.638,0.603,0.671,0.534,0.384,0.451,0.478,0.444,0.343
SW 900,0.425,0.664,0.447,0.37,,0.522,0.275,0.284,0.684,0.595,0.782,0.604,0.53,0.565,0.679,0.769,0.46,0.423
NCI-H1650,,0.418,0.34,0.196,0.484,0.526,0.45,0.125,0.597,0.584,0.835,0.618,0.618,0.356,0.362,0.373,0.36,0.279
NCI-H2170,0.389,0.424,0.202,0.174,0.798,0.309,0.119,0.111,0.709,0.745,0.761,0.809,0.667,0.695,0.634,0.616,0.716,0.467
